The text below walks through data of US11453666B2, “Autotaxin inhibitory compounds” (Cancer Research Technology Limited, priority 2015, dated 2022).

The target in the experiment is human recombinant ATX (Homo sapiens, UniProt Q13822). Put plainly: Autotaxin (ATX) activity Quanta Red assay. The format is biochemical. An outline of the steps:
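Recombinant human ATX reaction stopped after 2 h with Quanta Red stop solution; fluorescence read at […]. Controls with DMSO, with and without ATX; IC50 in duplicate.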

Setting [1] is: read-out: Activity (ATX activity, Quanta Red assay; IC50).
The mark [2] stands for this setting: human recombinant ATX 0.8 μg/mL, 2 hours at room temperature, IC50 determined in duplicate, read-out: Activity (ATX activity, Quanta Red assay; IC50).
[3] abbreviates: Table 2: additional compounds tested for ATX activity (Quanta Red Assay), read-out: Activity.

Each structure is given as a SMILES string. Where two headings read alike, the source gives them in different places.

`Cc1cnc2c(c1)nc(CCC(=O)N[C@@H](C)c1ccc(N3CCN[C@@H](C)C3)cc1)n2Cc1ccc(OC(F)(F)F)cc1` [Example 192, N-{(S)-1-[4-((S)-3-Methyl-piperazin-1-yl)-phenyl]-ethyl}-3-[6-methyl-3-(4-trifluoromethoxy-benzyl)-3H-imidazo[4,5-b]pyridin-2-yl]-propionamide]: under setting [1], the IC50 worked out at 56 nM.

As to `C[C@H](NC(=O)CCc1nc2cccnc2n1Cc1ccc(OC(F)(F)F)cc1)c1ccc(NC2CCN(C)CC2)cc1` [Example 173, N-{(S)-1-[4-(1-Methyl-piperidin-4-ylamino)-phenyl]-ethyl}-3-[3-(4-trifluoromethoxy-benzyl)-3H-imidazo[4,5-b]pyridin-2-yl]-propionamide], the IC50 under setting [1] came out at 3 nM.

As to `O=C(CCc1nc2cccnc2n1Cc1ccc(OC(F)(F)F)cc1)N[C@H](CO)Cc1ccc(O)cc1` [Example 205, N-[(S)-1-Hydroxymethyl-2-(4-hydroxy-phenyl)-ethyl]-3-[3-(4-trifluoromethoxy-benzyl)-3H-imidazo[4,5-b]pyridin-2-yl]-propionamide], the IC50 under setting [1] came out at 188 nM. Same read-out and setting: the same measure for `Cc1ccc([C@H](C)NC(=O)CCc2nc3ccncc3n2Cc2ccc(F)cc2)cc1` [Example 131, 3-[3-(4-Fluoro-benzyl)-3H-imidazo[4,5-c]pyridin-2-yl]-N-((S)-1-p-tolyl-ethyl)-propionamide]: 23 nM; for `Cc1cnc2c(c1)nc(CCC(=O)N[C@@H](C)c1ccc(Cl)cc1)n2Cc1ccc(F)cc1` [Example 213, N-[(S)-1-(4-Chloro-phenyl)-ethyl]-3-[3-(4-fluoro-benzyl)-6-methyl-3H-imidazo[4,5-b]pyridin-2-yl]-propionamide]: 17 nM. Same read-out and setting: the same measure for `CC(C)(C)OC(=O)N1CCC[C@@H](CNC(=O)CCc2nc3cccnc3n2Cc2ccc(OC(F)(F)F)cc2)C1` [Example 54, (S)-3-({3-[3-(4-Trifluoromethoxy-benzyl)-3H-imidazo[4,5-b]pyridin-2-yl]-propionylamino}-methyl)-piperidine-1-carboxylic acid tert-butyl ester]: 40 nM; for `C[C@H](NC(=O)CCc1nc2cccnc2n1Cc1ccc(F)cc1)c1ccc(N2CCCC2)cc1` [Example 180, 3-[3-(4-Fluoro-benzyl)-3H-imidazo[4,5-b]pyridin-2-yl]-N-[(S)-1-(4-pyrrolidin-1-yl-phenyl)-ethyl]-propionamide]: 6 nM; for `C[C@H](NC(=O)CSc1nc2cccnc2n1Cc1ccc(F)cc1)c1ccc(N2CCOCC2)cc1` [Example 147, 2-[3-(4-Fluoro-benzyl)-3H-imidazo[4,5-b]pyridin-2-ylsulfanyl]-N-[(S)-1-(4-morpholin-4-yl-phenyl)-ethyl]-acetamide]: 3 nM. Same read-out and setting: for `O=C(CCc1nc2cccnc2n1Cc1ccc(OC(F)(F)F)cc1)N[C@@H](CS)c1ccccc1` [Example 209, N—((R)-2-mercapto-1-phenyl-ethyl)-3-[3-(4-trifluoromethoxy-benzyl)-3H-imidazo[4,5-b]pyridin-2-yl]-propionamide] the value was 3 nM.

For `COc1ccc(Cn2c(CCC(=O)N[C@@H](C)c3ccccc3)nc3cccnc32)cc1` [Example 92, 3-[3-(4-Methoxy-benzyl)-3H-imidazo[4,5-b]pyridin-2-yl]-N-((S)-1-phenyl-ethyl)-propionamide], the IC50 under setting [1] is 17 nM. Consider `COc1ccc(CNC(=O)CCc2nc3cccc(F)c3n2Cc2ccc(OC)cc2)cc1` [Example 91, 3-[7-Fluoro-1-(4-methoxy-benzyl)-1H-benzoimidazol-2-yl]-N-(4-methoxy-benzyl)-propionamide], for which, under setting [1], the IC50 turned out to be 14 nM. `C[C@H](NC(=O)CCc1nc2cccnc2n1Cc1ccc(F)c(F)c1)c1ccc(N2CCN[C@@H](C)C2)cc1` [Example 184, 3-[3-(3,4-Difluoro-benzyl)-3H-imidazo[4,5-b]pyridin-2-yl]-N-{(S)-1-[4-((S)-3-methyl-piperazin-1-yl)-phenyl]-ethyl}-propionamide]: the IC50 under setting [1] amounted to 12 nM. The same measure, in the same setting: the same measure for `O=C(CCc1nc2cccnc2n1Cc1ccc(F)c(F)c1)NC(CCO)c1ccc(F)cc1` (stereo not shown) [Example 48, 3-[3-(3,4-Difluoro-benzyl)-3H-imidazo[4,5-b]pyridin-2-yl]-N-[1-(4-fluoro-phenyl)-3-hydroxy-propyl]-propionamide]: 19 nM; for `O=C(CCc1nc2cccnc2n1Cc1ccc(OC(F)(F)F)cc1)N[C@@H](Cc1ccccc1)C(=O)O` [Example 199, (S)-3-Phenyl-2-{3-[3-(4-trifluoromethoxy-benzyl)-3H-imidazo[4,5-b]pyridin-2-yl]-propionylamino}-propionic acid]: 71 nM. `C[C@H](NC(=O)COc1nc2cccnc2n1Cc1ccc(OC(F)(F)F)cc1)c1ccc(Cl)cc1` [Example 152, N—[(S)-1-(4-chloro-phenyl)-ethyl]-2-[3-(4-trifluoromethoxy-benzyl)-3H-imidazo[4,5-b]pyridin-2-yloxy]-acetamide]: the IC50 under setting [2] is 5 nM.

Turning to `O=C(CCc1nc2cccnc2n1Cc1ccc(F)c(F)c1)N[C@H]1CCc2ccccc21` [Example 55, 3-[3-(3,4-Difluoro-benzyl)-3H-imidazo[4,5-b]pyridin-2-yl]-N-(S)-indan-1-yl-propionamide], the IC50 under setting [1] worked out at 40 nM. Consider `C[C@H](NC(=O)CCc1nc2cccnc2n1Cc1ccc(OC(F)(F)F)cc1)c1ccc(F)cc1` [Example 13, N-[(S)-1-(4-Fluoro-phenyl)-ethyl]-3-[3-(4-trifluoromethoxy-benzyl)-3H-imidazo[4,5-b]pyridin-2-yl]-propionamide], for which, under setting [1], the IC50 amounted to 2 nM. Consider `C[C@H](NC(=O)CCc1nc2cccnc2n1Cc1ccc(F)c(F)c1)c1ccc(N2CCCC2)cc1` [Example 183, 3-[3-(3,4-Difluoro-benzyl)-3H-imidazo[4,5-b]pyridin-2-yl]-N-[(S)-1-(4-pyrrolidin-1-yl-phenyl)-ethyl]-propionamide], for which, under setting [1], the IC50 turned out to be 10 nM.

Turning to `C[C@H](NC(=O)CCc1cc2cc(F)cnc2n1Cc1ccc(Cl)cc1)c1ccc(F)cc1` [Example 141, 3-[1-(4-Chloro-benzyl)-5-fluoro-1H-pyrrolo[2,3-b]byridin-2-yl]-N-[(S)-1-(4-fluoro-phenyl)-ethyl]-propionamide], the IC50 under setting [1] worked out at 14 nM. Consider `C[C@H](NC(=O)CCc1nc2cccnc2n1Cc1ccc(OC(F)(F)F)cc1)C1CC1` [Example 60, N-((S)-1-Cyclopropyl-ethyl)-3-[3-(4-trifluoromethoxy-benzyl)-3H-imidazo[4,5-b]pyridin-2-yl]-propionamide], for which the IC50 under setting [1] was 89 nM. As for `C[C@H](NC(=O)CCc1nc2cccnc2n1Cc1ccc(OC(F)(F)F)cc1)c1ccc(N2CC[C@@H](N(C)C)C2)cc1` [Example 168, N-{(S)-1-[4-((R)-3-Dimethylamino-pyrrolidin-1-yl)-phenyl]-ethyl}-3-[3-(4-trifluoromethoxy-benzyl)-3H-imidazo[4,5-b]pyridin-2-yl]-propionamide], under setting [1], the IC50 amounted to 1 nM. Regarding `O=C(CCc1nc2cccnc2n1Cc1ccccc1)NCc1ccc(F)cc1` [Example 223, 3-(3-Benzyl-3H-imidazo[4,5-b]pyridin-2-yl)-N-(4-fluoro-benzyl)-propionamide], the IC50 under setting [3] is 324 nM.

As to `C[C@H](NC(=O)CCc1nc2cccnc2n1Cc1ccc(F)cc1)c1ccc(N2CCC(CO)CC2)cc1` [Example 181, 3-[3-(4-Fluoro-benzyl)-3H-imidazo[4,5-b]pyridin-2-yl]-N-{(S)-1-[4-(4-hydroxymethyl-piperidin-1-yl)-phenyl]-ethyl}-propionamide], the IC50 under setting [1] amounted to 7 nM. Take `COc1ccc(Cn2c(CCC(=O)Nc3ccc(F)cc3)nc3cccnc32)cc1` [Example 227, N-(4-Fluoro-phenyl)-3-[3-(4-methoxy-benzyl)-3H-imidazo[4,5-b]pyridin-2-yl]-propionamide]: the IC50 under setting [3] was 3830 nM. In the case of `COc1ccc(Cn2c(CCC(=O)N[C@@H](C)c3ccc(Cl)cc3)nc3cccnc32)cc1F` [Example 24, N-[(S)-1-(4-Chloro-phenyl)-ethyl]-3-[3-(3-fluoro-4-methoxy-benzyl)-3H-imidazo[4,5-b]pyridin-2-yl]-propionamide], under setting [1], the IC50 amounted to 4 nM.

Turning to `C[C@H](NC(=O)CCc1nc2ccncc2n1Cc1ccc(OC(F)(F)F)cc1)c1ccc(Cl)cc1` [Example 122, N—[(S)-1-(4-chloro-phenyl)-ethyl]-3-[3-(4-trifluoromethoxy-benzyl)-3H-imidazo[4,5-c]pyridin-2-yl]-propionamide], the IC50 under setting [2] was determined as 3 nM. With `O=C(CCc1nc2cccnc2n1Cc1ccc(F)c(F)c1)N[C@H](Cc1ccccc1)C(=O)O` [Example 198, (R)-2-{3-[3-(3,4-Difluoro-benzyl)-3H-imidazo[4,5-b]pyridin-2-yl]-propionylamino}-3-phenyl-propionic acid], the IC50 under setting [1] is 37 nM. Same read-out and setting: the same measure for `C[C@H](NC(=O)CCc1nc2cccnc2n1Cc1ccc(OC(F)(F)F)cc1)c1ccc(N2CC[C@H](N(C)C)C2)cc1` [Example 169, N-{(S)-1-[4-((S)-3-Dimethylamino-pyrrolidin-1-yl)-phenyl]-ethyl}-3-[3-(4-trifluoromethoxy-benzyl)-3H-imidazo[4,5-b]pyridin-2-yl]-propionamide]: 1 nM. Consider `O=C(CCc1nc2cccnc2n1Cc1cccs1)NCc1ccccc1` [Example 226, N-Benzyl-3-(3-thiophen-2-ylmethyl-3H-imidazo[4,5-b]pyridin-2-yl)-propionamide], for which the IC50 under setting [3] stood at 807 nM.

For `C[C@H](NC(=O)CCc1nc2cccnc2n1Cc1ccc(F)c(F)c1)c1ccc(N2CCCCC2)cc1` [Example 187, 3-[3-(3,4-Difluoro-benzyl)-3H-imidazo[4,5-b]pyridin-2-yl]-N-[(S)-1-(4-piperidin-1-yl-phenyl)-ethyl]-propionamide], the IC50 under setting [1] came to 15 nM. On to `C[C@H](NC(=O)CCc1nc2ccncc2n1Cc1ccc(F)cc1)c1ccc(F)cc1` [Example 132, 3-[3-(4-Fluoro-benzyl)-3H-imidazo[4,5-c]pyridin-2-yl]-N-[(S)-1-(4-fluoro-phenyl)-ethyl]-propionamide], for which the IC50 under setting [2] was 52 nM.
